Measured values as given in US8106055B2, “Substituted amide compounds” (Gruenenthal GmbH, priority 2007, dated 2012).

Tests used:
[1] = target: T1, serotonin (5-HT) reuptake (Rattus norvegicus, UniProt P31652); test: Inhibition of serotonin (5HT) reuptake in synaptosomes from rat brain; format: biochemical; conditions: test concentration of 10 μM; read-out: 5-HT (inhibition of reuptake of serotonin, % inhibition)
T1 construct: synaptosomes are freshly isolated from areas of the rat brain; from tissue; host or cells: rat brain synaptosomes (P2 fraction)
T1 sequence (P31652 whole entry): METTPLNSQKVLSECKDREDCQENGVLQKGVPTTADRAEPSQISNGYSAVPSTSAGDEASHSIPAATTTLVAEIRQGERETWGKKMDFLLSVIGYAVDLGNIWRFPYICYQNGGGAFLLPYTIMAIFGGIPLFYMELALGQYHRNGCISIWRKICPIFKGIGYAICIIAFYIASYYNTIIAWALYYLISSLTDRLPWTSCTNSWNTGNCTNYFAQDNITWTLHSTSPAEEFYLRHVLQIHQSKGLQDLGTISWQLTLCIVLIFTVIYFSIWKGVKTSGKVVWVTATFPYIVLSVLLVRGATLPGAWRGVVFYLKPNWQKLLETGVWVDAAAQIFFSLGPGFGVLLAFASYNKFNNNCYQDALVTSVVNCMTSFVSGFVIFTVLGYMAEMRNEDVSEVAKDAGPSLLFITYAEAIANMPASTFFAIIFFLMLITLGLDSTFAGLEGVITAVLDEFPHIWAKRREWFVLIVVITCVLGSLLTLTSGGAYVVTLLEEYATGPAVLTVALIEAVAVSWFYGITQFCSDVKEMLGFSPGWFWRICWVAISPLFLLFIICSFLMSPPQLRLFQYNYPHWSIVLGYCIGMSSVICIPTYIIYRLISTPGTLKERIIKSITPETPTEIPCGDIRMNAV
Summary of the method: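 Freshly isolated rat brain synaptosomes (P2 fraction) used for 5-HT reuptake. Test compound at 10 μM, activity given as % inhibition.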

[2] = target: T2, bradykinin 1 receptor (B1R) of the rat (Rattus norvegicus, UniProt P97583); test: Functional investigation on the rat bradykinin 1 receptor (B1R), Ca2+ FLIPR assay in CHO K1 rB1R cells; format: cell-based; conditions: CHO-K1, B1R antagonism rat; test substance 10 μM; Ca2+ FLIPR, CHO K1 rB1R cells; read-out: B1R Ant. r [10 μM] % Inhibition
T2 construct: expressed in transfected cells; host or cells: CHO K1 cells
T2 sequence (P97583 1-337): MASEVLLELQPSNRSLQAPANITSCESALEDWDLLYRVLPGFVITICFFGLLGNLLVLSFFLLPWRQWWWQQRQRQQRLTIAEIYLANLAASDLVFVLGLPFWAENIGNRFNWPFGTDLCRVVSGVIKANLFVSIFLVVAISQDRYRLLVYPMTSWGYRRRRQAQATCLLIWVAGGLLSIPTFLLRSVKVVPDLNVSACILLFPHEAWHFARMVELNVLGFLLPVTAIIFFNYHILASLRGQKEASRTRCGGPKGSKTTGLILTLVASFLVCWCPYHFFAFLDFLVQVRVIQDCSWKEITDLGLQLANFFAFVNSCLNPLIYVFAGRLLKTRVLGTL
Summary of the method: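 Stably transfected CHO K1 cells loaded with Fluo-4; FLIPR Ca2+ fluorescence peak (ex 488/em 540 nm). Compound added first (agonism vs Lys-Des-Arg9-bradykinin ≥50 nM human, Des-Arg9-bradykinin 10 μM rat), then after 10-20 min agonist at EC80; antagonism as % inhibition, IC50 from concentration series, n=2-3, N≥2.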

SMILES	inhibition at 10 µM [1] [%]	inhibition at 10 µM [2] [%]
CN(C)C(c1cccs1)C1CCC(NC(=O)COCCN(C)S(=O)(=O)c2ccc(Cl)cc2)CC1 (stereo not drawn) [Example 83, 2-(2-(4-chloro-N-methylphenylsulfonamido)ethoxy)-N-(4-((dimethylamino) (thiophen-2-yl)methyl)cyclohexyl)acetamide]	89	11
COc1cc(C)c(S(=O)(=O)N(C)CCOCC(=O)NCCC2CCC(C(c3cccs3)N(C)C)CC2)c(C)c1 (stereo not drawn) [Example 84, N-(2-(4-((dimethylamino)(thiophen-2-yl)methyl)cyclohexyl)ethyl)-2-(2-(4-methoxy-N,2,6-trimethylphenylsulfonamido)ethoxy)acetamide]	92	103
CN(C)C(c1cccs1)C1CCC(CCNC(=O)COCCN(C)S(=O)(=O)c2ccc(F)cc2)CC1 (stereo not drawn) [Example 85, N-(2-(4-((dimethylamino)(thiophen-2-yl)methyl)cyclohexyl)ethyl)-2-(2-(4-fluoro-N-methylphenylsulfonamido)ethoxy)acetamide]	98	12
COc1cc(C)c(S(=O)(=O)N2CCC(OCC(=O)NCC3CCC(C(c4cccs4)N(C)C)CC3)C2)c(C)c1 (stereo not drawn) [Example 86, N-((4-((dimethylamino)(thiophen-2-yl)methyl)cyclohexyl)methyl)-2-(1-(4-methoxy-2,6-dimethylphenylsulfonyl)pyrrolidin-3-yloxy)acetamide]	96	100
CN(C)C(c1cccc(F)c1)C1CCC(CNC(=O)COCC2CCCCN2S(=O)(=O)c2ccc(Cl)c(Cl)c2)CC1 (stereo not drawn) [Example 87, 2-((1-(3,4-dichlorophenylsulfonyl)piperidin-2-yl)methoxy)-N-((4-((dimethylamino)(3-fluorophenyl)methyl)cyclohexyl)methyl)acetamide]	94	9
COc1ccc(S(=O)(=O)N2CCCCC2COCC(=O)NCC2CCC(C(c3ccccc3)N(C)C)CC2)cc1 (stereo not drawn) [Example 88, N-((4-((dimethylamino)(phenyl)methyl)cyclohexyl)methyl)-2-((1-(4-methoxyphenylsulfonyl)piperidin-2-yl)methoxy)acetamide]	95	68
COc1ccc(S(=O)(=O)N2CCCCC2CCOCC(=O)NCC2CCC(C(c3ccccc3)N(C)C)CC2)cc1 (stereo not drawn) [Example 89, N-((4-((dimethylamino)(phenyl)methyl)cyclohexyl)methyl)-2-(2-(1-(4-methoxyphenylsulfonyl)piperidin-2-yl)ethoxy)acetamide]	92	50
COc1ccc(S(=O)(=O)N2CCCCC2CCOCC(=O)NCC2CCC(C(c3cccs3)N(C)C)CC2)cc1 (stereo not drawn) [Example 90, N-((4-((dimethylamino)(thiophen-2-yl)methyl)cyclohexyl)methyl)-2-(2-(1-(4-methoxyphenylsulfonyl)piperidin-2-yl)ethoxy)acetamide]	94	37
CN(C)C(c1ccccc1)C1CCC(CNC(=O)COCCN(C)S(=O)(=O)c2cccc(C(F)(F)F)c2)CC1 (stereo not drawn) [Example 91, N-((4-((dimethylamino)(phenyl)methyl)cyclohexyl)methyl)-2-(2-(N-methyl-3-(trifluoromethyl)phenylsulfonamido)ethoxy)acetamide]	93	34
CN(C)C(c1cccs1)C1CCC(CNC(=O)COCCN(C)S(=O)(=O)c2cccc(C(F)(F)F)c2)CC1 (stereo not drawn) [Example 92, N-((4-((dimethylamino)(thiophen-2-yl)methyl)cyclohexyl)methyl)-2-(2-(N-methyl-3-(trifluoromethyl)phenylsulfonamido)ethoxy)acetamide]	86	1
CN(C)C(c1cccs1)C1CCC(CNC(=O)COCCN(C)S(=O)(=O)c2ccc(OC(F)(F)F)cc2)CC1 (stereo not drawn) [Example 93, N-((4-((dimethylamino)(thiophen-2-yl)methyl)cyclohexyl)methyl)-2-(2-(N-methyl-4-(trifluoromethoxy)phenylsulfonamido)ethoxy)acetamide]	93	6
COc1ccc(S(=O)(=O)N2CCC(OCC(=O)NCCC3CCC(C(c4cccs4)N(C)C)CC3)C2)cc1OC (stereo not drawn) [Example 94, 2-(1-(3,4-dimethoxyphenylsulfonyl)pyrrolidin-3-yloxy)-N-(2-(4-((dimethylamino)(thiophen-2-yl)methyl)cyclohexyl)ethyl)acetamide]	88	21
